Data as given in patent publication US12648924B2, “Prevention and treatment of effects of aging and age-associated disorders with ketone supplementation” (priority 2020, dated 2026).
Entries after “also recorded” stand apart in the source; their conditions may differ.

Experiments:
[1] = Blood metabolites after 4-day transition to standard diet supplemented with KDE (Experiment 4a); assay type: in vivo, VM/Dk mice; settings: for blood ketone levels: vs baseline
Text: Food Intake and Ketone Diester Administration: Standard diet dry food (2018 Teklad Global 18% Protein Rodent Diet, Harlan) was mixed with deionized water (1 g dry food/mL deionized water) into a consistent paste and placed on a 100×15 mm dish. Food intake was tracked daily at the same time (7:00-9:00) and replaced every other day to ensure fresh food. Due to sinusoidal/oscillatory changes in food intake observed every other day (2-day pattern), a 4-day (2×2-day pattern) average was taken at EOL and baseline to calculate changes in anorexic symptoms. KDE was chemically synthesized with physical properties, preparation, and analysis described previously. For evaluation of KDE effect on anorexia, food intake was tracked daily at the same time (7:00-9:00). […] Consequently, upon VM-M3 inoculation, KDE+VM-M3 received ad libitum 0% KDE/weight day 1, 5% KDE day 2, 10% KDE day 3, 15% KDE day 4, 20% KDE day 5, 25% KDE day 6, and 30% KDE day 7 through 21 on top of HPSD. VM-M3 and Sham received HPSD ad libitum. As pilot work indicated potential water evaporation in food paste in ventilated cages, dehydration standard curve was calculated across various volumes of plated food (5, 10, 25.0, 50.0, 100 g/food) with and without KDE over a two-day period. Standard curve equation [water evaporated=0.2472 (original grams of water)+1.364] was used to correct for amount of dehydration prior to calculating caloric intake. For LPS experiments, 1×4 mL/kg KDE gavage or 1×4 mL/kg water gavage were administered for KDE+LPS and LPS-only, respectively. Ab libitum food intake was tracked daily during initial analysis with caloric restriction reported as the percent reduction in 24-hour caloric intake from pre- to post-LPS administration. Pair-feeding was conducted during subsequent analysis. […]
Metabolic Biomarkers: Blood glucose and R β-hydroxybutyrate were measured using Precision Xtra™ Blood Glucose & Ketone Monitoring System (Abbott Laboratories, Abbott Park, IL). Blood lactate concentration was measured using Lactate Plus Lactate Meter (Nova Biomedical). IGF-1 and Insulin were relabeled for blinded analysis and subsequently analyzed using Luminex 100 system (Luminex, Austin, TX) with R&D Systems Mouse 1-Plex Luminex Assay (R&D Systems, Minneapolis, MN) and Milliplex Mouse Multiplex Kit (Millipore, St. Charles, MO), respectively, using manufacturer's protocol.
To determine whether KDE could alter systemic metabolism, blood metabolites were measured at baseline following a standard diet and after a 4-day transition to a standard diet supplemented with 20% KDE, 25% KDE, or 30% KDE. […] To determine whether KDE could alter metabolism in CACS, blood ketones, glucose, and lactate were measured weekly. […] Thus, to determine if KDE altered tumor burden, in vivo bioluminescence imaging was analyzed weekly.

[2] = KDE in LPS-induced atrophy, pair-fed animals (Experiment 5c); assay type: in vivo, VM/Dk mice; settings: single 4 mL/kg KDE gavage after 10 mg/kg LPS, 1 day post LPS, vs LPS group

Which blood ketone levels ([1]; 20% KDE in standard diet, 4-day transition) does the source give for `CC(=O)CC(=O)OCCC(C)OC(=O)CC(C)=O` (centres unmarked) [KDE, R/S 1,3-butanediol acetoacetate diester] here?
The blood ketone levels was “significant elevations”.

What about the blood ketone levels ([1]; 30% KDE in standard diet, 4-day transition) of the same compound?
Its blood ketone levels is “significant elevations; also recorded: highest ketone elevations”.

And the blood glucose levels ([1]; 30% KDE in standard diet, compared with 20% and 25% KDE)?
The blood glucose levels was “greatest reduction in glucose”.

And the blood glucose levels ([1]; all KDE groups (20%, 25%, 30% KDE in standard diet), 4-day transition)?
The blood glucose levels was “significant reductions”.

What about the “reduction of bodyweight loss” value [2] of the same compound?
Its value is 28%.
